Data taken from ChEMBL document CHEMBL3885881, “DrugMatrix”.

Organism: Rattus norvegicus
Assay: DrugMatrix - Regimen: Daily Repeat
Format: toxicity, organism-based, Sprague-Dawley
Set-up: regimen Daily Repeat, gender Male, age 6-8 weeks
Settings: in vivo, po, route oral GAVAGE, vehicle 100 % WATER; for BASOPHIL / EOSINOPHIL / ERYTHROCYTE COUNT / HEMATOCRIT / HEMOGLOBIN / LEUKOCYTE COUNT / LYMPHOCYTE / MEAN CORPUSCULAR HEMOGLOBIN / MEAN CORPUSCULAR HEMOGLOBIN CONCENTRATION / MONOCYTE / NEUTROPHIL / PLATELET COUNT: tissue Blood; for ALANINE AMINOTRANSFERASE / ALBUMIN / ALKALINE PHOSPHATASE / ASPARTATE AMINOTRANSFERASE / BLOOD UREA NITROGEN / CHLORIDE / CHOLESTEROL / CREATINE PHOSPHOKINASE / CREATININE / GLUCOSE / PHOSPHORUS / POTASSIUM / SODIUM / TOTAL BILIRUBIN / TOTAL PROTEIN: tissue Plasma
[1] = 0 mg/kg, 72 h, dose level Control, time 3 day
[2] = 0 mg/kg, 120 h, dose level Control, time 5 day
[3] = 755 mg/kg, 72 h, dose level High, time 3 day
[4] = 755 mg/kg, 120 h, dose level High, time 5 day

Compound: CCN(CC)CCNC(=O)c1ccc(N)cc1 [PROCAINAMIDE]
- BASOPHIL [1]: 0%
- EOSINOPHIL [1]: 0.33%
- ERYTHROCYTE COUNT [1]: 5.88 x10E6/uL
- HEMATOCRIT [1]: 36.47%
- HEMOGLOBIN [1]: 14.2 G/DL
- LEUKOCYTE COUNT [1]: 9.28 x10E3/uL
- LYMPHOCYTE [1]: 82.33%
- MEAN CORPUSCULAR HEMOGLOBIN [1]: 24.2 pg
- MEAN CORPUSCULAR HEMOGLOBIN CONCENTRATION [1]: 38.97 G/DL
- MONOCYTE [1]: 2.33%
- NEUTROPHIL [1]: 15%
- PLATELET COUNT [1]: 1114 x10E3/uL
- ALANINE AMINOTRANSFERASE [1]: 41.17 u/L
- ALBUMIN [1]: 3.95 G/DL
- ALKALINE PHOSPHATASE [1]: 382.5 u/L
- ASPARTATE AMINOTRANSFERASE [1]: 67.33 u/L
- BLOOD UREA NITROGEN [1]: 15.5 mg/dL
- CHLORIDE [1]: 106.33 MEQ/L
- CHOLESTEROL [1]: 77.67 mg/dL
- CREATINE PHOSPHOKINASE [1]: 123.33 u/L
- CREATININE [1]: 0.62 mg/dL
- GLUCOSE [1]: 185.67 mg/dL
- PHOSPHORUS [1]: 10.2 mg/dL
- POTASSIUM [1]: 6.72 MEQ/L
- SODIUM [1]: 149.67 MEQ/L
- TOTAL BILIRUBIN [1]: 0.97 mg/dL
- TOTAL PROTEIN [1]: 6.58 G/DL
- BASOPHIL [2]: 0%
- EOSINOPHIL [2]: 0%
- ERYTHROCYTE COUNT [2]: 5.99 x10E6/uL
- HEMATOCRIT [2]: 36.88%
- HEMOGLOBIN [2]: 14.77 G/DL
- LEUKOCYTE COUNT [2]: 11.35 x10E3/uL
- LYMPHOCYTE [2]: 85.5%
- MEAN CORPUSCULAR HEMOGLOBIN [2]: 24.7 pg
- MEAN CORPUSCULAR HEMOGLOBIN CONCENTRATION [2]: 40.07 G/DL
- MONOCYTE [2]: 1.83%
- NEUTROPHIL [2]: 12.67%
- PLATELET COUNT [2]: 979.67 x10E3/uL
- ALANINE AMINOTRANSFERASE [2]: 36.5 u/L
- ALBUMIN [2]: 3.63 G/DL
- ALKALINE PHOSPHATASE [2]: 303.5 u/L
- ASPARTATE AMINOTRANSFERASE [2]: 61 u/L
- BLOOD UREA NITROGEN [2]: 16.5 mg/dL
- CHLORIDE [2]: 106.17 MEQ/L
- CREATINE PHOSPHOKINASE [2]: 154.83 u/L
- CREATININE [2]: 0.6 mg/dL
- GLUCOSE [2]: 201 mg/dL
- PHOSPHORUS [2]: 10.1 mg/dL
- POTASSIUM [2]: 6.85 MEQ/L
- SODIUM [2]: 148.17 MEQ/L
- TOTAL BILIRUBIN [2]: 0.58 mg/dL
- TOTAL PROTEIN [2]: 5.9 G/DL
- BASOPHIL [3]: 0%
- EOSINOPHIL [3]: 0%
- ERYTHROCYTE COUNT [3]: 5.39 x10E6/uL
- HEMATOCRIT [3]: 32.67%
- HEMOGLOBIN [3]: 13.03 G/DL
- LEUKOCYTE COUNT [3]: 10.2 x10E3/uL
- LYMPHOCYTE [3]: 85.67%
- MEAN CORPUSCULAR HEMOGLOBIN [3]: 24.17 pg
- MEAN CORPUSCULAR HEMOGLOBIN CONCENTRATION [3]: 39.9 G/DL
- MONOCYTE [3]: 1.33%
- NEUTROPHIL [3]: 13%
- PLATELET COUNT [3]: 1063.33 x10E3/uL
- ALANINE AMINOTRANSFERASE [3]: 43 u/L
- ALBUMIN [3]: 3.9 G/DL
- ALKALINE PHOSPHATASE [3]: 441.33 u/L
- ASPARTATE AMINOTRANSFERASE [3]: 61 u/L
- BLOOD UREA NITROGEN [3]: 16 mg/dL
- CHLORIDE [3]: 105.33 MEQ/L
- CHOLESTEROL [3]: 74.33 mg/dL
- CREATINE PHOSPHOKINASE [3]: 142.67 u/L
- CREATININE [3]: 0.57 mg/dL
- GLUCOSE [3]: 176.33 mg/dL
- PHOSPHORUS [3]: 11.97 mg/dL
- POTASSIUM [3]: 6.97 MEQ/L
- SODIUM [3]: 150.67 MEQ/L
- TOTAL BILIRUBIN [3]: 0.6 mg/dL
- TOTAL PROTEIN [3]: 6.5 G/DL
- BASOPHIL [4]: 0%
- EOSINOPHIL [4]: 0%
- ERYTHROCYTE COUNT [4]: 5.45 x10E6/uL
- HEMATOCRIT [4]: 33.47%
- HEMOGLOBIN [4]: 14.6 G/DL
- LEUKOCYTE COUNT [4]: 13.8 x10E3/uL
- LYMPHOCYTE [4]: 87.67%
- MEAN CORPUSCULAR HEMOGLOBIN [4]: 26.87 pg
- MEAN CORPUSCULAR HEMOGLOBIN CONCENTRATION [4]: 43.7 G/DL
- MONOCYTE [4]: 1.33%
- NEUTROPHIL [4]: 11%
- PLATELET COUNT [4]: 830.33 x10E3/uL
- ALANINE AMINOTRANSFERASE [4]: 40.67 u/L
- ALBUMIN [4]: 3.73 G/DL
- ALKALINE PHOSPHATASE [4]: 378.67 u/L
- ASPARTATE AMINOTRANSFERASE [4]: 63 u/L
- BLOOD UREA NITROGEN [4]: 14.33 mg/dL
- CHLORIDE [4]: 107.33 MEQ/L
- CHOLESTEROL [4]: 74 mg/dL
- CREATINE PHOSPHOKINASE [4]: 117.33 u/L
- CREATININE [4]: 0.67 mg/dL
- GLUCOSE [4]: 180 mg/dL
- PHOSPHORUS [4]: 10.5 mg/dL
- POTASSIUM [4]: 6.57 MEQ/L
- SODIUM [4]: 152.33 MEQ/L
- TOTAL BILIRUBIN [4]: 0.53 mg/dL
- TOTAL PROTEIN [4]: 6.03 G/DL
